Reference: patent US20110008388A1, “PIGLET FEED RATIONS HAVING LOW LEVELS OF FERMENTABLE CARBOHYDRATES” (NOVUS INTERNATIONAL INC., priority 2007, published 2011)

Columns and labels:
nursery pigs [1] = experiment: Example 1: lactose level and acidifying agent in nursery pig diets, growth performance (BW, ADG, ADFI, GF); format: in vivo; settings: for feed intake: Phase I; for average daily feed intake (ADFI): Phase II
Description: The following study was designed to determine whether a feed supplement comprising an acidifying agent could counteract the negative effects of lower levels of lactose in nursery pigs. A two-phase feeding program, with and without an acidifying agent comprising 2-hydroxy-4-methylthiobutanoic acid, fumaric acid, and benzoic acid (i.e., as provided by ACTIVATE® DA, Novus Intl), was implemented with industry norms for energy, digestible amino acids, vitamins, and minerals. The two-phase feeding program introduced ingredients in a progressive way to gently enhance maturation of the gastrointestinal system, while at the same time supplying special ingredients that should encourage maximal growth performance. The pigs were fed a Phase I diet from weaning to 10 days post weaning, and a Phase II diet from days 11 to 21 post weaning. The levels of lactose were varied in each diet phase and each level of lactose was examined with and without the acidifying agent.
A total of approximately 840 commercial breed nursery pigs (TR-4X C22 PIC lines, PIC Intl., Franklin, Ky.) were blocked by weight and sex, and then placed into a pen containing about 20-22 pigs per pen. There were a total of 42 pens that were used for 7 replications/treatment with approximately equal numbers of pens per sex/treatment. Treatments were randomly assigned to pens within a room prior to treatment initiation. Each pen was accounted as an experimental unit. The animals were cared for according to standard site practices, which include daily observations, temperature monitoring, feeder observations, and waterer observations.
Diets were balanced to meet 60 TID Met & Cys:Lys. The ideal amino acid ratio of Thr, Tryp, Ile, and Val to Lys was maintained at a minimum of 65%, 16%, 55%, and 65%, respectively, based on the TID ideal amino acid profile for swine. Diets that included the acidifying agent used MHA (DL-methionine hydroxyl analog) to balance for the methionine source, while diets without the acidifying agent used DL-Met as a methionine source. All diets were balanced to have equivalent methionine activity and properly mixed according to the diet formulations presented in Table 1 and Table 2 for Phase I, and Table 4 and Table 5 for Phase II. Calculated analyses of the diets are presented in Tables 3 and 6 for Phase I and II, respectively.
The treatment arrangements were a 3×2 factorial arrangement with three levels of lactose with and without the acidifying agent (i.e., ACTIVATE® DA at a 0.5%). Diets were formulated to provide 5%, 10%, or 20% lactose equivalent during Phase I (0 to 10 days post weaning) and 2.5%, 5%, or 10% lactose equivalent during Phase II (11 to 21 days post weaning). The lactose equivalent was provided by […]-80® (80% lactose content; International Ingredient Corporation, St. Louis, Mo.). Fishmeal and SDPP were held constant across the diets, and corn and CWG were allowed to float to provide similar energy levels. All diets were supplemented with the enteric antibiotic carbodox (i.e., MECADOX®, Phibro Animal Health, Ridgefield Park, N.J.).
The animals were observed daily including weekends and holidays. Any abnormal observations or mortalities were recorded by pen with weight and date. The body weights of the pigs were collected initially and at the end of each phase. The feed intake was collected for each phase of growth. Feed offered was measured by weighing each amount of feed used for each pen. Feed refused was measured by weighing the amount of feed left in the feeder and any remainder that had previously been recorded as feed offered.
Data were analyzed by analysis of variance procedures appropriate for a randomized block design using the General Linear Models procedure of SAS. Differences of least squares means for treatments from control pigs were determined using a least square comparison.

nursery pigs [2] = experiment: Example 4: organic trace minerals and antibiotics with GEM blend in low lactose diets, nursery pig performance (BW, ADG, ADFI, GF); format: in vivo; settings: Phase I, 0 to 7 days post weaning; regardless of lactose level; P<0.07
Description: Forty-two pens of pigs with about 20-25 pigs/pen blocked by weight were used. Pig body weights were collected initially (day 0) and at the end of each phase (days 7 and 21 post weaning). Feed consumption was measured from days 0-7 (Phase I) and from days 8-21 (Phase II) post weaning. Growth rate was calculated as average daily gain (ADG), daily feed intake was calculated as average daily feed intake (ADFI) and feed efficiency was calculated as the ratio of gain:feed (GF).
Phase I was from day 0 to 7 post weaning and Phase II was from day 8 to 21 post weaning. Composition and analysis of the experimental diets used in Phase I are described in Tables 18 and 19, respectively. Composition and analysis of the experimental diets used in Phase II are described in Tables 20 and 21, respectively. Diets in treatments 1 and 6 contained the high lactose levels of 20% and 10% in Phase I and II, respectively. All other treatments had diets containing the low lactose levels of 5% and 2.5% in Phase I and II, respectively. Antibiotic, GEM blend and OTM treatments during the two phases were as follows:
Phase I (0 to 7 Days): • 1. High lactose (20%)+enteric antibiotic. • 2. Low lactose (5%)+enteric antibiotic. • 3. Low lactose (5%)+enteric antibiotic+GEM blend. • 4. Low lactose (5%)+enteric antibiotic+OTM. • 5. Low lactose (5%)+enteric antibiotic+OTM+GEM blend. • 6. […]

| SMILES | feed intake (nursery pigs [1]; high level of lactose (20%)) [g/day] | feed intake (nursery pigs [1]; intermediate level of lactose (10%)) [g/day] | feed intake (nursery pigs [1]; lowest level of lactose (5%)) [g/day] | average daily feed intake (ADFI) (nursery pigs [1]; highest lactose level (10%)) [g/day] | average daily feed intake (ADFI) (nursery pigs [1]; intermediate lactose level (5%)) [g/day] | average daily feed intake (ADFI) (nursery pigs [1]; lowest lactose level ([…])) [g/day] | feed intake (nursery pigs [2]) [g/day] |
| --- | --- | --- | --- | --- | --- | --- | --- |
| OC[C@H]1O[C@@H](O[C@H]2[C@H](O)[C@@H](O)C(O)O[C@@H]2CO)[C@H](O)[C@@H](O)[C@H]1O (stereo partly shown) [lactose] | 146 | 150 | 132 | 408 | 400 | 384 |  |
| COC(=O)N/N=C/c1c[n+]([O-])c2ccccc2[n+]1[O-] [enteric antibiotic, carbodox] |  |  |  |  |  |  | 179 |
